Test results from PubChem BioAssay AID179 (DTP/NCI, 2004).
The source made the active and inactive calls.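 The calls were made as follows: active = compounds giving half or more protection of infected cells from virus-caused growth loss, again on retest; inactive = the rest.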 *1 amine or outer side, *2 acyl side, *3 side chain or, on linkers, in order; H or OH if unused. Where a SMILES comes first, the peptide text is derived from it. [ ]: non-standard residue; d: D form. The star is where a group is joined. ξ: configuration not given here. X15 = O=C([C@H]1CCC[C@H]1N[*:1])[*:2]; ξW = NC(Cc1c[nH]c2ccccc12)C(=O)O; ξF = NC(Cc1ccccc1)C(=O)O; Boc = CC(C)(C)OC(=O)*; ξK = NCCCCC(N)C(=O)O; ξT = CC(O)C(N)C(=O)O; OBn = c1ccc(CO*)cc1; tBu = CC(C)(C)*

System: CEM cells HIV-1 protection, formazan growth assay
Assay: NCI AIDS Antiviral Assay
Conditions: for IC50: measured here: growth of uninfected CEM cells
Procedure, shortened: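 Human CEM cells, uninfected and HIV-1-infected, received five drug concentrations, and growth was read by soluble formazan assay. Compounds giving at least 50% protection were retested; reproducible 100% protection defined confirmed active.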

Row | SMILES | outcome | EC50 [µM] | IC50 [µM]
1 | CC12C/C(=C\c3ccccc3)C(=O)C3C1CCCC32 | inactive |  | 
2 | O=C(NC1C(=O)NC(CCc2ccccc2)NC1=O)OCc1ccccc1 (stereo not drawn) |  | > 200 | > 200
3 | N#CC(C#N)=c1cc/c(=c2/ccc(=C(C#N)C#N)s2)s1 |  | > 24.5 | > 24.5
4 | Cc1c(C)c2c(c(N)c1C#N)C(=O)N(NC(=S)Nc1ccccc1)C2=O |  | > 200 | 158
5 | Brc1ccc(N=NN2CCCC2)cc1 |  | > 200 | 38.9
6 | COc1cccc(/C=C2\S/C(=N/Nc3nc(C)c(C)s3)NC2=O)c1O |  | > 200 | 129
7 | O=S(=O)(O)c1ccc(N=Nc2ccc(O)cc2O)cc1 |  | > 200 | 112
8 | Cn1ncc2c(Nc3ccc(Cl)cc3)c3ccccc3nc21 | inactive |  | 
9 | CC(OC(C)(C)C)C1NC(=O)C(CCCCNC(=O)OC(C)(C)C)NC(=O)C(Cc2c[nH]c3ccccc23)NC(=O)C(Cc2ccccc2)NC(=O)[C@H]2CCC[C@H]2NC(=O)C(Cc2ccccc2)NC1=O (stereo partly drawn) (cyclo([X15][ξF][ξW][ξK](Boc)[ξT](tBu)[ξF])) | inactive |  | 
10 | NCCCC1CCCCNC1 (stereo not drawn) | inactive |  | 
11 | O=c1[nH]c(Nc2ccc(Cl)cc2)nc2nc[nH]c12 |  | > 100 | 89.1
12 | O=C(O)CCC(NC(=O)c1ccc(Nc2nc3ccccc3nc2-c2cccs2)cc1)C(=O)O (stereo not drawn) |  | > 525 | 457
13 | O=C(O)C1COCN1C(=O)c1cccnc1SSc1ncccc1C(=O)N1COCC1C(=O)O (stereo not drawn) |  | > 200 | > 200
14 | O=S(=O)(O)CCCNC(CO)(CO)CO |  | > 200 | > 200
15 | CC(C)CC(NC(=O)c1cccc(O)c1O)C(=O)NCc1cc(CNC(=O)C(CC(C)C)NC(=O)c2cccc(O)c2O)cc(CNC(=O)C(CC(C)C)NC(=O)c2cccc(O)c2O)c1 (stereo not drawn) | inactive |  | 
16 | CNC/C(Cl)=N/S(=O)(=O)c1ccc(C)cc1 |  | > 58.9 | 2.75
17 | Cc1cccc2c1c(=O)c1c(O)cc(O)cc1n2C |  | > 200 | > 200
18 | O=C(CSc1nc2ccccc2c(=O)n1-c1ccccc1)N=Nc1c(O)[nH]c2ccc(Br)cc12 |  | 61.7 | 85.1
19 | CCC[CH2][Sn]1([CH2]CCC)[O]C(=O)c2cccnc2[O]1 |  | > 97.7 | 0.0977
20 | O=C(Nc1cccc(O)c1)C(=O)C(C(=O)c1ccc(Cl)c(Cl)c1)C1OC(=O)c2ccccc21 (stereo not drawn) |  | > 141 | 64.6
21 | C=C1CC(COc2cc(Cl)nc(N)n2)C1 |  | > 200 | 24.5

Row | SMILES | outcome | EC50 [µM] | IC50 [µM]
22 | O=C(O)P(=O)(O)O |  | > 7940 | 5750
23 | CCC[CH2][Sn]([CH2]CCC)=[N]S(=O)(=O)c1ccc(Cl)c(C)c1 |  | > 0.2 | 0.0851
24 | CC(C)CC1N=C(OCc2ccccc2)OC1=O (stereo not drawn) |  | > 200 | > 200
25 | CCN(/C=C1/C(=O)C(c2ccccc2)N(c2ccccc2)C1=O)CC (stereo not drawn) |  | > 200 | > 200
26 | O=c1[nH]c(=O)n(C2CC(O)C(CO)O2)cc1OCc1ccccc1 (stereo not drawn) |  | > 200 | > 200
27 | Cc1ccc(Nc2nc(NS(=O)(=O)c3cc(C(=O)Nc4ccc(Cl)cc4)c(Cl)cc3S)n[nH]2)cc1 |  | > 195 | 178
28 | CC1(C)C(OC(=O)c2ccccc2)C[C@]23CCC[C@](C)(C[C@@H](O)C12)C3 (stereo partly drawn) |  | > 200 | 24
29 | CC(C)(C)C(=O)O[C@@H]1COC2C(O)COC21 (stereo partly drawn) |  | > 1070 | 977
30 | Clc1cc(Cl)cc(C2SCc3nc4ccccc4n32)c1 (stereo not drawn) | inactive |  | 
31 | Nc1nc2c(=O)c3ccccc3sc2s1 | inactive |  | 
32 | Cc1cc(C#N)c[n+](C)c1 |  | > 200 | > 200
33 | CC1(C(=O)O)CCCC2(C)C3=CC(=O)CCC3=CCC12 (stereo not drawn) |  | > 200 | 186
34 | N=c1ncn(Cc2ccccc2)c2nc[nH]c12 |  | > 200 | > 200
35 | COCC12CC(CC1=O)C1C2ON2c3ccccc3C(=O)C12c1ccccc1 (stereo not drawn) |  | > 50.1 | > 50.1
36 | O=c1cc(-c2ccccc2)oc2ccc(O)cc12 |  | > 200 | 67.6
37 | CC(C)(C)OC(=O)c1cc(NC(=S)c2ccccc2)ccc1Cl |  | 0.363 | 19.1
38 | O=C(O)CN1CCNCCN(CC(=O)O)CCNCC1 |  | > 200 | 3.63
39 | C=CC(C)(C)n1cc(C2=C3OC(=O)C(c4cn(C(C)(C)C=C)c5ccccc45)=C3OC2=O)c2ccccc21 |  | > 200 | > 200
40 | Cc1sc2ccccc2c2nc3ccccc3c1-2 | inactive |  | 
41 | CCCCCCCCCCCCC/C=C\[C@@H](OC(=O)c1ccccc1)C(CO)N=[N+]=[N-] (stereo partly drawn) | inactive |  | 
42 | O=C(C[P+](c1ccccc1)(c1ccccc1)c1ccccc1)c1ccc(Br)cc1 |  | > 200 | 14.8

Row | SMILES | outcome | EC50 [µM] | IC50 [µM]
43 | CC1(C)CC(=O)C2=C(C1)OC1=C(C(=O)CC(C)(C)C1)C2C(O)C(O)C(O)CO (stereo not drawn) |  | > 200 | > 200
44 | N#Cc1c(NC(=S)Nc2ccc(Cl)cc2)sc2c1CCCC2 |  | > 200 | > 200
45 | N#CCCN(c1ccc(C=O)cc1)S(=O)(=O)c1ccccc1 |  | > 22.9 | > 22.9
46 | Clc1ccc(C2c3ccccc3-c3nc4ccccc4n32)cc1 (stereo not drawn) |  | > 200 | > 200
47 | [Pt].c1ccc([PH+](CC[PH+](CC[PH+](c2ccccc2)c2ccccc2)CC[PH+](c2ccccc2)c2ccccc2)c2ccccc2)cc1 |  | > 21.9 | 0.417
48 | Cc1cc(NS(=O)(=O)c2ccc(NC(=O)c3cccc4c(N)c5ccccc5nc34)cc2)no1 |  | > 93.3 | 43.7
49 | Cc1ccc(S(=O)(=O)/C(C#N)=C/NC(=S)Nc2ccc(C)cc2C)cc1 | inactive |  | 
50 | ClCCC1OC(CCCl)OC(CCCl)O1 (stereo not drawn) |  | > 200 | > 200
51 | CC1=N/C(=C\c2ccccc2F)C(=O)O1 |  | > 631 | > 631
52 | COc1cc2cc(C(=O)N3CC(CCl)c4c3cc(N)c3ccccc43)[nH]c2c(OC)c1OC (stereo not drawn) |  | > 0.2 | 0.000832
53 | CCC1(C(=O)OC)CCc2c(OC)ccc(OC)c2C1=O (stereo not drawn) | inactive |  | 
54 | Cc1c2ccccc2c(CSCC(N)C(=O)O)c2ccccc12 (stereo not drawn) |  | > 200 | > 200
55 | Cc1cc(-c2c(Br)cc(C(=O)O)n2C)on1 |  | > 200 | > 200
56 | N#CC(NC12CC3CC(CC(C3)C1)C2)c1ccccc1 (stereo not drawn) | inactive |  | 
57 | O=C(CC(O)(C(F)(F)F)C(F)(F)F)c1ccc(Cl)cc1 |  | > 200 | > 200
58 | OCC1OC2OC3C(CO)OC(OC4C(CO)OC(OC5C(CO)OC(OC6C(CO)OC(OC7C(CO)OC(OC1C(O)C2O)C(O)C7O)C(O)C6O)C(O)C5O)C(O)C4O)C(O)C3O (stereo not drawn) (tested in a mixture with another compound) |  | > 200 | > 200
59 | CCOC(=O)c1c(C)nc2c(c1-c1cn(-c3ccccc3)nc1-c1ccccc1)C(=O)c1ccccc1-2 | inactive |  | 
60 | N/N=C(\CC1OC(=O)c2ccccc21)c1ccco1 (stereo not drawn) |  | > 977 | 617
61 | COC[C@H]1c2cc(O)c(OCc3ccccc3)cc2O[C@@H]1c1ccc(OC)cc1 |  | > 200 | 19.5
62 | CC(C)(C)OC(=O)NC(Cc1ccccc1)C(=O)NC(Cc1ccccc1)C(=O)NCC(=O)OCc1ccccc1 (stereo not drawn) (Boc-Phe-Phe-Gly-OBn; configuration not given here) |  | > 200 | 11.5
63 | C/C(=N/NC(N)=S)C(CN(C)C)C(C1=C(O)c2ccccc2OC1)c1ccccc1 (stereo not drawn) |  | > 141 | 107
